Laboratory results reported in US4350700A, “Pharmaceutical composition containing 1,3,5-substituted biuret compound” (Taiho Pharmaceutical Company, Limited, priority 1979, dated 1982).
Like-named read-outs stand apart in the source and are kept apart here.

Columns and labels:
[1] = system: acetic acid-induced stretching symptom of mouse; test: Analgesic activity, acetic acid-induced stretching method; type: in vivo, mice (ddy strain, male); details: for ED50: oral, mice (Δ values; range in parentheses), read-out: Analgesic activity, acetic acid-induced stretching method, 50% effective dose ED50
Description: (§1) Next, several tests for determining the pharmacological properties, in that acute toxicity, anti-pyretic activity, analgesic activity and anti-inflammatory activity of the present 1,3,5-substituted biuret compounds of the formula (1) were conducted and the test results are shown in Table (2). In the tests, each compounds to be tested was used as a suspension in 0.25% carboxymethylcellulose solution. Methods for testing are explained as follows:
(1) Acetic acid-induced stretching method
According to the method reported by Koster et.al., [Fed. Proc., Vol. 18, pp. 412 (1959)], the ddy strain of male mice (body weight, 20-25 g) were used as test animals. The mice were fasted overnight, 100 mg/kg body weight of the test compound was administered orally, then 1 hour after the administration, 0.2 ml of 0.7% acetic acid solution was injected intraperitoneally. The acetic acid-induced stretching symptom of mouse was observed. Analgesic activity of the test compound was calculated as the inhibitory ratio (%). In Table 2, the values in parentheses show the data obtained from the test by using the dosage other than 100 mg/kg body weight. Further, the values indicated with Δ marks show 50% effective dose, ED50 (mg/kg body weight).

[2] = system: 10% dry-yeast suspension-induced fever of rats; test: Anti-pyretic activity (dry-yeast induced fever, febril index); type: in vivo, rats (Wistar strain, male); details: oral, febril index up to 4 hours after administration, dose not stated
Description: as §1
According to the method reported by Tanabe [Folia Pharmacologia Japonica, Vol. 73, pp. 803 (1977)], the Wistar strain of male rats (150-180 g body weight) were used as test animals. The rats were fasted overnight, and 1 ml/100 g (body weight) of 10% dry-yeast suspension were subcutaneously injected on the back of the rats. Five hours afte the injection, the test compound was administered orally, then the body temperature of the rat was measured time sequences. Anti-pyretic activity of the test compound was determined as the FI (febril index) by integrating pyrogenetic curve up to 4 hours after the administration of the test compound with time, and indicated as inhibitory ratio (%) shown by the following formula, [formula]

[3] = system: pain reaction of the mouse caused by a clamp; test: Analgesic activity, Haffner method; type: in vivo, mice (ddy strain, male); details: for Analgesic activity, Haffner method, inhibitory ratio: mice; for ED50: Mus musculus, oral, mice (Δ values; range in parentheses), read-out: Analgesic activity, Haffner method, 50% effective dose ED50
Description: as §1
According to the modified method reported by Fujimura et al., [Bulletin of the Institute for Chemical Research, Kyoto University, No. 25, pp. 36 (1951)], the ddy strain of male mice (body weight, 20-25 g) were used as test animals. The mice were fasted overnight, 100 mg/kg body weight of the test compound was administered orally, then 45 minutes after the administration, the threshhold amount (1.5-2.5 mg/kg body weight) of morphine hydrochloride was injected subcutaneously. Then 1-hour pain reaction of the mouse caused by a clamp was observed. Analgesic activity of the test compound was calculated as the inhibitory ratio (%). In Table 2, the values in parentheses show the data obtained from the test by using the dosage other than 100 mg/kg body weight. Further, the values indicated with Δ marks show 50% effective dose, ED50 (mg/kg body weight).

[4] = system: carrageenin-induced inflammation of the hindpaw of the rat; test: Anti-inflammatory activity, acute carrageenin-induced inflammatory test; type: in vivo, rats (Wistar strain, male); details: Rattus norvegicus, read-out: Anti-inflammatory activity, inflammation inhibitory ratio
Description: as §1
4. Anti-inflammatory Activity
According to the method of acute carrageenin-induced inflammatory test [Folia Pharmacologia Japonica, Vol. 56, pp. 575 (1960)], the Wistar strain of male rats (body weight, 150-180 g) were used as test animals. The rats were fasted overnight, 100 mg/kg body weight of the test compound was administered orally, then 1 hour after the administration, 0.1 ml of 1% carrageenin solution, as the inflammation inducing agent, was injected subcutaneously to the hindpaw of the rat and the volume of the hindpaw was measured at time sequences. Anti-inflammatory activity of the test compound was calculated as inflammation inhibitory ratio (%) at 3 hours after the injection of inflammation inducing agent.

[5] = Acute toxicity (oral, general symptom and death observed for 7 days); type: in vivo, mice (ddy strain, male); details: mouse, in vivo; oral, mice, 7 days observation (Δ values); read-out: Acute toxicity, 50% lethal dose LD50
Description: as §1
(§2) The ddy strain of male mice (body weight, 20-25 g) were used as test animals. The mice were fasted overnight and the compound to be tested was administered orally. […] The lethal dose (mg/kg, body weight) of the test compound was determined in connection with the death number of mice/the number of mice tested. In Table 2, the values indicated with Δ marks are 50% lethal dose, LD50 (mg/kg, body weight).

[6] = system: ddy strain of male mice; test: as above; type: in vivo; details: 7 days
Description: as §1, §2

[7] = po, read-out: Analgesic activity, acetic acid-induced stretching method, inhibitory ratio
[8] = 100 mg/kg oral, rats, 3 hours after carrageenin
[9] = 100 mg/kg oral, mice, read-out: Analgesic activity, acetic acid-induced stretching method, inhibitory ratio

| Compound | inhibition in vivo at 100 mg/kg [1, 7] [%] | Anti-pyretic activity, inhibitory ratio [2] [%] | Analgesic activity, Haffner method, inhibitory ratio ([3]; 100 mg/kg oral) [%] | LD50 at 168 h [5] [mg/kg] | inhibition in vivo at 100 mg/kg [4, 8] [%] | further results |
| --- | --- | --- | --- | --- | --- | --- |
| CCNC(=O)N(C)C(=O)Nc1cccs1 [compound 40] | 75 | 42 | 37.5 | 559 | – | inhibition in vivo at 100 mg/kg ([4]; po, 3 h): 24% |
| CNC(=O)N(C)C(=O)Nc1ccncc1 [compound 16] | 62.5 | – | 25 | 1100 | 34 | – |
| CNC(=O)N(C)C(=O)Nc1cccnc1 [Compound No. 15, 1,3-Dimethyl-5-(3-pyridyl)-biuret] | – | 94 | 62.5 | 1100 | 37 | ED50 [1]: 44 mg/kg |
| CNC(=O)N(C)C(=O)Nc1ccccc1 [Compound No. 3, 1,3-dimethyl-5-phenylbiuret] | – | 145 | – | 1450 | 88 | ED50 [1]: 35 mg/kg; ED50 [3]: 111 mg/kg |
| CNC(=O)N(C)C(=O)Nc1ccc(OC)cc1 [Compound No. 8, 1,3-Dimethyl-5-(4-methoxyphenyl)-biuret] | – | 110 | 50 | 1440 | 40 | inhibition in vivo at 100 mg/kg [1, 9]: 87.5% |
| CNC(=O)N(C)C(=O)Nc1ccc(Cl)cc1 [compound 6] | – | 72 | 50 | 1240 | – | ED50 [1]: 40 mg/kg; inhibition in vivo at 100 mg/kg ([4]; po, 3 h): 43% |
| C=CCNC(=O)NC(=O)Nc1ccccc1 [compound 44] | 62.5 | – | 50 | 1400 | – | inhibition in vivo at 100 mg/kg ([4]; po, 3 h): 33% |
| CCNC(=O)N(C)C(=O)Nc1ccc(OC)c(OC)c1 [compound 36, 1-Ethyl-3-methyl-5-(3,4-dimethoxyphenyl)biuret] | 50 | 43 | 62.5 | 833 | – | inhibition in vivo at 100 mg/kg ([4]; po, 3 h): 23% |
| CNC(=O)N(C)C(=O)Nc1ncccn1 [compound 19, 1,3-Dimethyl-5-(2-pyrimidinyl)biuret] | 50 | 6 | 37.5 | 1400 | – | – |
| CCNC(=O)N(C)C(=O)Nc1ccccc1 [Compound No. 31, 1-ethyl-3-methyl-5-phenylbiuret] | – | 149 | – | 1590 | 63 | ED50 [1]: 70 mg/kg; ED50 [3]: 105 mg/kg |
| CNC(=O)N(C)C(=O)Nc1nccs1 [compound 20] | – | 112 | 25 | – | 46 | inhibition in vivo at 100 mg/kg [1, 9]: 25%; Acute toxicity, death number of mice/number of mice tested ([6]; 1000 mg/kg oral): 3/4 |
| CN(C(=O)Nc1ccccc1)C(=O)NC(C)(C)C [compound 51, 1-tert-Butyl-3-methyl-5-phenylbiuret] | 50 | 83 | 37.5 | – | 34 | Acute toxicity, death number of mice/number of mice tested ([6]; 2000 mg/kg oral): 0/4 |
| CCNC(=O)NC(=O)Nc1ccc(OC)cc1 [compound 28, 1-Ethyl-5-(4-methoxyphenyl)biuret] | – | – | – | 1600 | – | inhibition in vivo at 200 mg/kg [1, 7]: 37.5%; Analgesic activity, Haffner method, inhibitory ratio ([3]; 200 mg/kg oral): 37.5%; inhibition in vivo at 200 mg/kg ([4]; 200 mg/kg oral, rats, 3 hours after carrageenin): 75% |
| CC(C)CNC(=O)N(C)C(=O)Nc1ccccc1 [Compound No. 49, 1-Isobutyl-3-methyl-5-phenylbiuret] | – | 55 | – | – | 57 | inhibition in vivo at 40 mg/kg [1, 7]: 50%; ED50 [3]: 50 mg/kg; Acute toxicity, death number of mice/number of mice tested ([6]; 2000 mg/kg oral): 0/4 |
| CCNC(=O)N(C)C(=O)Nc1cc(OC)c(OC)c(OC)c1 [Compound No. 37, 1-Ethyl-3-methyl-5-(3,4,5-trimethoxyphenyl)biuret] | 75 | 97 | – | 749 | – | ED50 [3]: 46 mg/kg |
| CNC(=O)N(C)C(=O)Nc1ccc2c(c1)OCO2 [compound 9, 1,3-Dimethyl-5-(3,4-methylenedioxyphenyl)biuret] | 87.5 | 38 | 25 | 1080 | 46 | – |
| CNC(=O)N(C)C(=O)Nc1ccccn1 [Compound No. 14, 1,3-dimethyl-5-(2-pyridyl)biuret] | 62.5 | – | – | 656 | 54 | ED50 [3]: 145 mg/kg |
